The target in assay [1] is T1, Replicative DNA helicase DnaB (Mycobacterium tuberculosis, UniProt P9WMR3).
T1 sequence (P9WMR3 whole entry): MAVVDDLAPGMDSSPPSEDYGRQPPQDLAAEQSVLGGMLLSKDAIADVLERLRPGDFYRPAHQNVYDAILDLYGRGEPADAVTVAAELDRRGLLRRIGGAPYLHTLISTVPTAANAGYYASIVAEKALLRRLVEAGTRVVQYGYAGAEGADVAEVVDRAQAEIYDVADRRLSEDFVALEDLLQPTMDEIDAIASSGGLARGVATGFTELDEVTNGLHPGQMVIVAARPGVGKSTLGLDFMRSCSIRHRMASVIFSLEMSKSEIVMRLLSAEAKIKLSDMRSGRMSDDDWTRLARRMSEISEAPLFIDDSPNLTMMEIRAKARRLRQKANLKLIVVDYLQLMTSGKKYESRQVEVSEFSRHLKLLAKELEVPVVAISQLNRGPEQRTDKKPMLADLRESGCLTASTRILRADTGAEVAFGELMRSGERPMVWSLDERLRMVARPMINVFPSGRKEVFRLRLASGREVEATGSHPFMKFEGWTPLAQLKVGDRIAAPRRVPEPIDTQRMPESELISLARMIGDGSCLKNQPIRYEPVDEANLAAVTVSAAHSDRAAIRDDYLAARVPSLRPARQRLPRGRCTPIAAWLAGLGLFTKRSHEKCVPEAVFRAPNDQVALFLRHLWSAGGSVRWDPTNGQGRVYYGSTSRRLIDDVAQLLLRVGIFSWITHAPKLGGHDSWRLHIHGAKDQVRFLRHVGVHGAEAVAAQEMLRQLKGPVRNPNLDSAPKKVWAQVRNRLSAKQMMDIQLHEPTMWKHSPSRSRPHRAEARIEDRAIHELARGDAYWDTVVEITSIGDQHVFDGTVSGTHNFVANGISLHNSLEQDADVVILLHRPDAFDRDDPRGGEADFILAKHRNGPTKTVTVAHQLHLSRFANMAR
The assay can be described thus: DnaB intein splicing inhibitors, dose response, biochemical, cell-free fluorescence (AID 449749). It is filed as functional.

Assay [2] addresses ATP-dependent molecular chaperone HSP82 (Candida albicans (strain WO-1) (Yeast), UniProt C4YTQ8). In words: loss of DOC-induced GRE-beta-galactosidase reporter signal, dose response, Hsp90 inhibitor project, S. cerevisiae, luminescence (AID 2400).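 Further: beta-galactosidase luminescence from glucocorticoid response element reporter as proxy for Hsp90 function; inhibitor potency where signal loss means Hsp90 inhibition.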 The class given is functional, cell-based.
Assay [3] deals with Dual specificity tyrosine-phosphorylation-regulated kinase 1A (Homo sapiens, UniProt Q13627). The class given is functional.
The target of assay [4] is Protein-tyrosine kinase 6 (Homo sapiens, UniProt Q13882). It is filed as functional.
Assay [5] deals with Dual specificity protein kinase CLK2 (Homo sapiens, UniProt P49760). The class given is functional.
Sequence of Dual specificity protein kinase CLK2 (P49760 whole entry): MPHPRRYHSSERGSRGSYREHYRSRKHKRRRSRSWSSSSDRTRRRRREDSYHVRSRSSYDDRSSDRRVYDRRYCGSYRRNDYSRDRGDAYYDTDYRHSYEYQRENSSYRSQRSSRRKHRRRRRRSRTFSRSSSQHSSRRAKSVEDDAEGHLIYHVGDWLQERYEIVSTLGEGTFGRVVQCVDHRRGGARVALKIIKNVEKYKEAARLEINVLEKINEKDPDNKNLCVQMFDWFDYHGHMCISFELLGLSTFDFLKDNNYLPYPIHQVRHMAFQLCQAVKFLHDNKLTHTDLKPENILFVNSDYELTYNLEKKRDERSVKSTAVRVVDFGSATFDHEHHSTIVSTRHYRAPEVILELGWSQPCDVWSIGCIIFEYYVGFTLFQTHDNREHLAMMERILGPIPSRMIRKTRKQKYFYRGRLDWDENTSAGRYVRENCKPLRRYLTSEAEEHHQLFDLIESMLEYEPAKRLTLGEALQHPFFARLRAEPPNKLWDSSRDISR
Assay [6] deals with Vascular endothelial growth factor receptor 3 (Homo sapiens, UniProt P35916). It is filed as functional.
Assay [7] deals with MAP kinase-activated protein kinase 5 (Homo sapiens, UniProt Q8IW41). It is filed as functional.
Sequence of MAP kinase-activated protein kinase 5 (Q8IW41 whole entry): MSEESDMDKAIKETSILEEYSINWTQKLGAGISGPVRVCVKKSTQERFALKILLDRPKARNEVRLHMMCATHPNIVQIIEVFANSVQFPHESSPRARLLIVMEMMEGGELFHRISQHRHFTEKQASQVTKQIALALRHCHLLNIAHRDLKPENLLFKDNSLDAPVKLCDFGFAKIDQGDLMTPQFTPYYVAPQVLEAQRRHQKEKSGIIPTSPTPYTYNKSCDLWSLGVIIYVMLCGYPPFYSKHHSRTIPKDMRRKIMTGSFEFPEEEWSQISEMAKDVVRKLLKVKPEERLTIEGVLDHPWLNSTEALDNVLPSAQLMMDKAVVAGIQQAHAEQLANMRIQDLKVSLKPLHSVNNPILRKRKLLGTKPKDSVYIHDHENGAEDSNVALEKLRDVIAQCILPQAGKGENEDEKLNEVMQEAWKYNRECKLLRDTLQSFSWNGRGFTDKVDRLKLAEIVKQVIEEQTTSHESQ
Assay [8] deals with Serine/threonine-protein kinase PLK3 (Homo sapiens, UniProt Q9H4B4). It is filed as functional.
Sequence of Serine/threonine-protein kinase PLK3 (Q9H4B4 whole entry): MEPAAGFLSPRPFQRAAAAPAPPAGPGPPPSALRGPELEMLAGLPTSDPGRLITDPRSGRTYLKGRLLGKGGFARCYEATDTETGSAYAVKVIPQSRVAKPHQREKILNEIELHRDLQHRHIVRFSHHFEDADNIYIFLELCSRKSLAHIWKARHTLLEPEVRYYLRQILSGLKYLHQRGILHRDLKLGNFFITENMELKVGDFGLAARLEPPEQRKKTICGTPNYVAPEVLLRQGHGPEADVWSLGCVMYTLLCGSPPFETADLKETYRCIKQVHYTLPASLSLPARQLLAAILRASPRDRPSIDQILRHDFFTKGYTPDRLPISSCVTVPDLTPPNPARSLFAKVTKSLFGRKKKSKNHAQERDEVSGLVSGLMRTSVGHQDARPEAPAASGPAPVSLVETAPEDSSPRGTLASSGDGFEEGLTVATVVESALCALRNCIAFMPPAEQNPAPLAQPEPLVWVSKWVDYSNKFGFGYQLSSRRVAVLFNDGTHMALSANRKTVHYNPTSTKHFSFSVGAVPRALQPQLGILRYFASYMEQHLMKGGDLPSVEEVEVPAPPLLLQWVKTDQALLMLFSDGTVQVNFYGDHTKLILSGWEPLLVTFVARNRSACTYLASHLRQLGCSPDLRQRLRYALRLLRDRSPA
Assay [9] has as its target Serine/threonine-protein kinase Chk2 (Homo sapiens, UniProt O96017). The class given is functional.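 Further: CHEK2 entry within a kinome-wide screening panel.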
For another assay, the target named is LIM domain kinase 1 (Homo sapiens, UniProt P53667). The assay can be described thus: Navigating the Kinome. Panel member name: LIMK1. It is filed as functional.
The target of assay [10] is Macrophage colony-stimulating factor 1 receptor (Homo sapiens, UniProt P07333). The class given is functional.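 Further: value comes from the Navigating the Kinome screening panel, CSF1R member.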
Another assay concerns the target Insulin receptor (Homo sapiens, UniProt P06213). The class given is functional.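 Further: insulin receptor kinase tested as one member of a kinome-wide kinase panel.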
Assay [11] concerns the target Macrophage-stimulating protein receptor (Homo sapiens, UniProt Q04912). The assay can be described thus: Navigating the Kinome. Panel member name: MST1R. It is filed as functional.
Assay [12] has as its target Vascular endothelial growth factor receptor 1 (Homo sapiens, UniProt P17948). The class given is functional.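 Further: measured within a kinome-wide profiling panel, FLT1 as the panel member.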
Assay [13] addresses ALK tyrosine kinase receptor (Homo sapiens, UniProt Q9UM73). The class given is functional.
Assay [14] addresses Tyrosine-protein kinase JAK3 (Homo sapiens, UniProt P52333). It is filed as functional.
Assay [15] concerns the target Mast/stem cell growth factor receptor Kit (Homo sapiens, UniProt P10721). It is filed as functional.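 Further: KIT entry within a kinase panel assay.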
In assay [16] the target is Calcium/calmodulin-dependent protein kinase type 1 (Homo sapiens, UniProt Q14012). The class given is functional.
Assay [17] has as its target Calcium/calmodulin-dependent protein kinase type II subunit delta (Homo sapiens, UniProt Q13557). The class given is functional.
Assay [18] concerns the target Serine/threonine-protein kinase PAK 4 (Homo sapiens, UniProt O96013). The class given is functional.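 Further: value obtained within a kinome profiling panel in which PAK4 was one of the panel members.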
For assay [19], the target named is Receptor tyrosine-protein kinase erbB-2 (Homo sapiens, UniProt P04626). The assay can be described thus: Navigating the Kinome. Panel member name: ERBB2. It is filed as functional.
The target of assay [20] is Tyrosine-protein kinase BTK (Homo sapiens, UniProt Q06187). The class given is functional.
In assay [21] the target is Testis-specific serine/threonine-protein kinase 1 (Homo sapiens, UniProt Q9BXA7). The class given is functional.
Assay [22] concerns the target Cyclin-dependent kinase 5 (Homo sapiens, UniProt Q00535). It is filed as functional.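 Further: CDK5 measured as one member of a kinase profiling panel.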
Assay [23] deals with cAMP-dependent protein kinase catalytic subunit PRKX (Homo sapiens, UniProt P51817). It is filed as functional.
Assay [24] concerns the target Lymphokine-activated killer T-cell-originated protein kinase (Homo sapiens, UniProt Q96KB5). The class given is functional.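 Further: value comes from a kinase panel screen in which TOPK was one of the panel members.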
The target in assay [25] is Protein kinase C iota type (Homo sapiens, UniProt P41743). The class given is functional.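 Further: measured within a kinome-wide kinase panel, PRKCI as panel member.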
The target in assay [26] is Calcium/calmodulin-dependent protein kinase type II subunit alpha (Homo sapiens, UniProt Q9UQM7). In words: Navigating the Kinome. Panel member name: CAMK2A. The class given is functional.
Sequence of Calcium/calmodulin-dependent protein kinase type II subunit alpha (Q9UQM7 whole entry): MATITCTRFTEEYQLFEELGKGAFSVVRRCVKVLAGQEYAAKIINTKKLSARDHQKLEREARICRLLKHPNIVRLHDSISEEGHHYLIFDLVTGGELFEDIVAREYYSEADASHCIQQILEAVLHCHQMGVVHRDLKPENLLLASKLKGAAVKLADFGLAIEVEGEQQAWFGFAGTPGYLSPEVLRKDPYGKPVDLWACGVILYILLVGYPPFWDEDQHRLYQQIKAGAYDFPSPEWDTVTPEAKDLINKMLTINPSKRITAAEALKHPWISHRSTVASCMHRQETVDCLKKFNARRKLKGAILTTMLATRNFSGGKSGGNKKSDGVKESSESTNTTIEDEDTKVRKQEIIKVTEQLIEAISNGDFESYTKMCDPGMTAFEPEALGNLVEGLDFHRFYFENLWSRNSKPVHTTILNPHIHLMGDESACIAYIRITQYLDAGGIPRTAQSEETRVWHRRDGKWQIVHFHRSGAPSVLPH
Assay [27] has as its target Serine/threonine-protein kinase pim-3 (Homo sapiens, UniProt Q86V86). The class given is functional.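 Further: value obtained as one member of a broad kinase panel profiling effort.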
The target in assay [28] is Leukocyte tyrosine kinase receptor (Homo sapiens, UniProt P29376). In words: Navigating the Kinome. Panel member name: LTK. It is filed as functional.
The target in assay [29] is Ribosomal protein S6 kinase alpha-5 (Homo sapiens, UniProt O75582). The class given is functional.
Sequence of Ribosomal protein S6 kinase alpha-5 (O75582 whole entry): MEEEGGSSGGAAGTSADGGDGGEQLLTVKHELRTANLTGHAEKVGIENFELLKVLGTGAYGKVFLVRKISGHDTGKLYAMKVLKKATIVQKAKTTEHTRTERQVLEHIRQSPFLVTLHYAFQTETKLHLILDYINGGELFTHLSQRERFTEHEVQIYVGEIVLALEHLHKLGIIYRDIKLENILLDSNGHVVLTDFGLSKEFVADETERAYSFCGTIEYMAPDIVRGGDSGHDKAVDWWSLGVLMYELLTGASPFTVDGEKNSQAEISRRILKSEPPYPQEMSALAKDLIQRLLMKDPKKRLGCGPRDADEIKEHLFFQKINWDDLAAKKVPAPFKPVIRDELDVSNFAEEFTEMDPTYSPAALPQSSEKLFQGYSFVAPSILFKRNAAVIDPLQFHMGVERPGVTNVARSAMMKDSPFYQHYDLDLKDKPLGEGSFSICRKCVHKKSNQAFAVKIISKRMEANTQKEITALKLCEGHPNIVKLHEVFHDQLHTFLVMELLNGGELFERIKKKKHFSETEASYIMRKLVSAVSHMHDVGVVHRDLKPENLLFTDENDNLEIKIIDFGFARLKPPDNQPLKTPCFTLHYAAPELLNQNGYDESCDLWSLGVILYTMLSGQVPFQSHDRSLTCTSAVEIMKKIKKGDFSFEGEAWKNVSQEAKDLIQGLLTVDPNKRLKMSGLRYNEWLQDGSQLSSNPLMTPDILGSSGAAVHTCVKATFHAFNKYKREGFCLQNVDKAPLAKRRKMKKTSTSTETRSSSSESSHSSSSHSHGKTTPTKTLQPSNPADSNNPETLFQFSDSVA
In assay [30] the target is Calcium/calmodulin-dependent protein kinase kinase 2 (Homo sapiens, UniProt Q96RR4). In words: Navigating the Kinome. Panel member name: CAMKK2. It is filed as functional.
Assay [31] concerns the target Death-associated protein kinase 3 (Homo sapiens, UniProt O43293). The class given is functional.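 Further: measured as one member of a kinome-wide profiling panel.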

Activity calls are given as the source filed them. Some results are limits rather than exact numbers.

The results in this text go back to ChEMBL document CHEMBL1201862, “PubChem BioAssay data set” (2004).

Sequence of Tyrosine-protein kinase JAK3 (P52333 whole entry): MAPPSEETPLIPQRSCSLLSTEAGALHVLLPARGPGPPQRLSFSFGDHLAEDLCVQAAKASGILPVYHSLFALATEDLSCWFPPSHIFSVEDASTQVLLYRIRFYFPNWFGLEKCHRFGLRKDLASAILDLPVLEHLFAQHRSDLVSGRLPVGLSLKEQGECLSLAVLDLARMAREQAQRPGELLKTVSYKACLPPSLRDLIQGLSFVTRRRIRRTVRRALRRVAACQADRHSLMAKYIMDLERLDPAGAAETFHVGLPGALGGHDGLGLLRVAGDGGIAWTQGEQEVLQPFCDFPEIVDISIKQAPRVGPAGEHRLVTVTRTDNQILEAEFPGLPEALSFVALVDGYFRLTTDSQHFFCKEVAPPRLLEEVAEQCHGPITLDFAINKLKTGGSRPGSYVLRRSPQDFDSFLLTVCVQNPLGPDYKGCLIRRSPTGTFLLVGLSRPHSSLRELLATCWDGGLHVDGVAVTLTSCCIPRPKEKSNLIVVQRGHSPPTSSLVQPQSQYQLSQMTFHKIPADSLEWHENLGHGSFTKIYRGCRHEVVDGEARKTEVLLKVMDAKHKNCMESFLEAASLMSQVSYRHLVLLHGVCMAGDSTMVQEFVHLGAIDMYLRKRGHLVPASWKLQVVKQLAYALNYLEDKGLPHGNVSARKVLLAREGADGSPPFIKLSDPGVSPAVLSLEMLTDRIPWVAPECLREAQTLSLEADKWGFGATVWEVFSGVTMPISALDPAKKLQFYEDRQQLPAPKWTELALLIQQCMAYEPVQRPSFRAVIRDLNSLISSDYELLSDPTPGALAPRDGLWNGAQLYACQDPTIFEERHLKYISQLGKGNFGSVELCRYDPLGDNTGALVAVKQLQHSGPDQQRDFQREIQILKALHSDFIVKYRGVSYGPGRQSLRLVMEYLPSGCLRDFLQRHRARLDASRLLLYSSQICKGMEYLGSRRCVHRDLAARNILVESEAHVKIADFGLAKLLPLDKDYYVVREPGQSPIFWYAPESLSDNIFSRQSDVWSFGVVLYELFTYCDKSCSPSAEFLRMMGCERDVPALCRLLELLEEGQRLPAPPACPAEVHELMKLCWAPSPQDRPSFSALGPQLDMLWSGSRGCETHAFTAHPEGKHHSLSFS
Sequence of Calcium/calmodulin-dependent protein kinase type II subunit delta (Q13557 whole entry): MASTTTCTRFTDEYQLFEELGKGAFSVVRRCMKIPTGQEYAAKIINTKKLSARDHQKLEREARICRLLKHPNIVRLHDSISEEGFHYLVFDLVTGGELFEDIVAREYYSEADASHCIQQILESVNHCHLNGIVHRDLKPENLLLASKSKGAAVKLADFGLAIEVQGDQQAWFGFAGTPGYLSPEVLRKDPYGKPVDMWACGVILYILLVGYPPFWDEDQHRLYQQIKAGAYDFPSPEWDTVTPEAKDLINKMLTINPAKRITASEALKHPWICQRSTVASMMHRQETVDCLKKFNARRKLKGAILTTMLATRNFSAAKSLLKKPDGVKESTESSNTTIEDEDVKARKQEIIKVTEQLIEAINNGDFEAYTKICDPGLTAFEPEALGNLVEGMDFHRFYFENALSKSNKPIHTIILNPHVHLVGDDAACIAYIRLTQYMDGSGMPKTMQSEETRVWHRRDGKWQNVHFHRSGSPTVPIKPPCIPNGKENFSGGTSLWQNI

On to `CCCn1nc([N+](=O)[O-])c(C(C#N)c2nc3ccccc3s2)c(Cl)c1=O` (stereo not drawn), for which the half-maximal activity concentration (AC50) in assay [1] is 4720 nM (active). In addition, in assay [2], the EC50 was 10700 nM (active).
In the case of `NCCCn1cc(-c2cc(-c3cc4ccccc4s3)c3[nH]ncc3c2)c2nc(N)ncc21`, the Ki in assay [3] was 1000 nM (active); in assay [4], > 2510 nM (inactive); in assay [5] it was > 2510 nM (inactive); in [6], 1000 nM (active); in assay [7] it was 200 nM (active); in assay [8], > 7940 nM (inactive). Besides, the Ki was 20 nM (active) in assay [9]; 1260 nM (active) on LIM domain kinase 1; > 2510 nM (inactive) in assay [10]; > 5010 nM (inactive) at Insulin receptor; > 3980 nM (inactive) in [11]; > 2510 nM (inactive) in [12]. The Ki was > 3980 nM (inactive) in assay [13]; > 3980 nM (inactive) in assay [14]; > 3160 nM (inactive) in [15]; 3160 nM (active) in [16]; 158 nM (active) in assay [17]; 2510 nM (active) in [18]. The Ki is > 1580 nM (inactive) in [19]; > 3980 nM (inactive) in assay [20]; 251 nM (active) in assay [21]; 1580 nM (active) in [22]; 3.16 nM (active) in [23]; 2510 nM (active) in [24]. Besides, the Ki in assay [25] was 3.16 nM (active); in assay [26], > 5010 nM (inactive); in [27] it was 31.6 nM (active); in [28], > 2510 nM (inactive); in assay [29], 631 nM (active); in assay [30], > 2510 nM (inactive). Moreover, in [31], the inhibition constant (Ki) is 79.4 nM (active).

What is called AC50 is the concentration giving half of the maximal activity seen. In general, EC50 refers to the midpoint of the concentration-response curve. As usually defined, the Ki is a dissociation constant, usually derived from enzyme kinetics or from competition with a known ligand.
